Assay results reported in patent US20150246888A1, “ENOYL REDUCTASE INHIBITORS WITH ANTIBACTERIAL ACTIVITY” (priority 2012, published 2015).
Converted amounts (≈) assume the structure as drawn. Where two headings read alike, the source gives them in different places.

Legend:
[1] = tested on: E. coli TolC-, an efflux defective mutant; assay: microbe, parasite or virus in culture; assay type: cell-based; details: Escherichia coli
FabI = FabI (Francisella tularensis subsp. tularensis, UniProt Q5NGQ3); assay: biochemical; parameters: species or system F. tularensis subsp. tularensis Schu4
Sequence of FabI (Q5NGQ3 1-260 limits assumed): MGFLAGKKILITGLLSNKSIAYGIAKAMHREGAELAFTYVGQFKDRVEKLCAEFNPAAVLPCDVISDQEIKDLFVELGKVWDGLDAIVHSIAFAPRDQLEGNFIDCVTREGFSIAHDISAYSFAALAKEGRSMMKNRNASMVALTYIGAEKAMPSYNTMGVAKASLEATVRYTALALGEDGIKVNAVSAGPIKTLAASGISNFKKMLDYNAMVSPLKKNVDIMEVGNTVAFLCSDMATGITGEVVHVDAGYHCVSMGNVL

S. aureus = assay: Cell viability as a function of time (measured with depolarization); assay type: cell-based
FtuFabI = FtuFabI (Francisella tularensis subsp. tularensis, UniProt Q5NGQ3); assay: biochemical; parameters: species or system F. tularensis subsp. tularensis Schu4
Sequence of FtuFabI (Q5NGQ3 1-260 limits assumed): as above

[2] = tested on: F. tularensis, strain Utah 112; assay: microbe, parasite or virus in culture; assay type: cell-based; details: Francisella tularensis, UTAH112
[3] = tested on: E. coli (BW251113 strain); assay: microbe, parasite or virus in culture; assay type: cell-based; details: Escherichia coli
MRSA (ATCC number 43300) = assay: microbe, parasite or virus in culture; assay type: cell-based, methicillin-resistant Staphylococcus aureus; details: Staphylococcus aureus
[4] = tested on: B. anthracis, ΔANR strain; assay: microbe, parasite or virus in culture; assay type: cell-based; details: Bacillus anthracis
S. aureus membrane = assay: Membrane depolarization as a function of time; assay type: cell-based
[5] = tested on: S. aureus (ATCC number 29213); assay: microbe, parasite or virus in culture; assay type: cell-based

Structure (SMILES)	MBC [1]	MIC [1]	Cell viability (done at 2X MIC) (S. aureus)	MBC [2]	MIC [2]	MIC [3]	MIC (MRSA (ATCC number 43300))	MBC [4]	MIC [4]	Depolarization (done at 2X MIC) (S. aureus membrane)	MIC [5]	MBC ([5]; Staphylococcus aureus)	MIC ([5]; Staphylococcus aureus)	also measured
COc1ccc(Cn2cnc3cc4c(cc32)CCCC4)cc1C [Compound 9, 1-(4-methoxy-3-methylbenzyl)-5,6,7,8-tetrahydro-1H-naphtho[2,3-d]imidazole]	9.4 µg/mL (≈ 30.7 µM)	4.7 µg/mL (≈ 15.3 µM)	Clearly bacteriostatic	6.3 µg/mL (≈ 20.6 µM)	3.1 µg/mL (≈ 10.1 µM)	> 12.5 µg/mL	12.5 µg/mL (≈ 40.8 µM)	6.3 µg/mL (≈ 20.6 µM)	6.3 µg/mL (≈ 20.6 µM)	Initially depolarizing (in first 60 min) but cells ‘recover’ and regain polarization compared to control with no compound	6.3 µg/mL (≈ 20.6 µM)	25 µg/mL (≈ 81.6 µM)	6.3 µg/mL (≈ 20.6 µM)	Ki (FabI; read-out: Ki^1 (Experimental Ki)): 130 ± 10 nM; IC50 (FtuFabI; read-out: IC50): 140 nM; IC50 (FtuFabI; read-out: IC50, Inhibition of FabI): 140 nM; Ki (FtuFabI; read-out: Ki^2 (Calculated using the Cheng-Prusoff Equation)): 110 nM
CC(c1ccc(Cl)c(Cl)c1)n1cnc2cc3c(cc21)CCCC3 (stereo not shown) [Compound 4, 1-(1-(3,4-dichlorophenyl)ethyl)-5,6,7,8-tetrahydro-1H-naphtho[2,3-d]imidazole]	> 25 µg/mL	3.1 µg/mL (≈ 8.98 µM)	Clearly bacteriostatic	25 µg/mL (≈ 72.4 µM)	3.1 µg/mL (≈ 8.98 µM)	> 12.5 µg/mL	3.1 µg/mL (≈ 8.98 µM)	3.1 µg/mL (≈ 8.98 µM)	3.1 µg/mL (≈ 8.98 µM)	Initially depolarizing (in first 60 min) but cells ‘recover’ and regain polarization compared to control with no compound	3.1 µg/mL (≈ 8.98 µM)	25 µg/mL (≈ 72.4 µM)	3.1 µg/mL (≈ 8.98 µM)	Ki (FabI): 570 ± 140 nM; IC50 (FtuFabI): 630 nM; Ki (FtuFabI): 510 nM; MBC (MRSA (ATCC number 43300)): 25 µg/mL (≈ 72.4 µM)
